Like-named read-outs stand apart in the source and are kept apart here.

Experiment [1] concerns the target T1, Human FAAH (Homo sapiens, UniProt O00519).
T1 construct: made in house
T1 sequence (O00519 32-579 limits assumed): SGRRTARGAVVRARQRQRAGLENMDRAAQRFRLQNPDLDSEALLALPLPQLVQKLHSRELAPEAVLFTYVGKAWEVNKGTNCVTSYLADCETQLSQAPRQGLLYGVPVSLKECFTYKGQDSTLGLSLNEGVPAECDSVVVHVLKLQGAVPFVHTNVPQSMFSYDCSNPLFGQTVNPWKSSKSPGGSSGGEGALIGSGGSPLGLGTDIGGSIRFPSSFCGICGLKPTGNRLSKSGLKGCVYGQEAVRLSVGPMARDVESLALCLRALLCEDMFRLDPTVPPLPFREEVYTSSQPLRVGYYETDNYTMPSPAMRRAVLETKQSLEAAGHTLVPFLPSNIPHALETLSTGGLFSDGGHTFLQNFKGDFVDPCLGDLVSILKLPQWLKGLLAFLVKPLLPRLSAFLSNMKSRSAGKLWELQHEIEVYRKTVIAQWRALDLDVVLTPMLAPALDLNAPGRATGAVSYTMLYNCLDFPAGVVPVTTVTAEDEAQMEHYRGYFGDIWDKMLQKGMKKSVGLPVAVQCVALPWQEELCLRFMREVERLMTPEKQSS
Description: FAAH assay, kinetic analysis of irreversible inhibition (kinact/Ki). In kind it is biochemical. Here is the method: A FAAH assay may be carried out in 384-well clear polystyrene plates in a total volume of 50 μl per well. All percents are by volume. To each well is placed the reaction mixture (40 μl) containing 1-4 nM FAAH, 50 mM NaPi, pH 7.4, 3 mM α-ketoglutarate, 0.15 mM NADH, 7.5 U/ml glutamate dehydrogenase, 2 mM ADP, 1 mM EDTA, and 0.1% Triton X-100 (The concentration shown for each component is the final concentration in the assay). To this mixture is added 5 μl of a compound of Examples 1 to 20 at various concentrations prepared in 50% DMSO (or 5 μl 50% DMSO for controls). This is immediately followed by the addition of 5 μl oleamide (500 μM) dissolved in […] and the reaction mixture is mixed for 1.5 min. The final concentrations of DMSO and EtOH in the assay are each 7.5%. The reactions is then incubated at 30° C. and the absorbance at 340 nm is collected over a period of 90 min with readings taken in 30-second intervals using SpectraMax Plus^384 Microplate Spectrophotometer (Molecular Devices, Sunnyvale, Calif.). Human FAAH used in the assay is prepared as described in the patent application WO 2006/067613. The purity of the enzyme used is preferably greater than 98% based on an analysis by SDS-polyacrylamide gel electrophoresis followed by Coomassie Blue staining.
Initial velocity data (V) is obtained from the slopes of the initial progressive curves. They are plotted as a function of substrate concentration and fit to the Michaelis-Menten equation (1) using Prism (GraphPad Software, Inc., San Diego, Calif.) software to obtain Km and Vmax values.
To obtain potencies of irreversible inhibitors, progressive curves consistent with first order inhibition kinetics (two-step irreversible inhibition mechanism) are fit to equation (2) by nonlinear least squares regressions to determine kobs values at each inhibitor concentration, where [P]t is the absorbance at time t, V0 is a constant related to the steady state rate of the uninhibited reaction, and kobs is the first order rate constant for enzyme inactivation. The inhibitor dissociation constant (Ki) and the first order rate
constant of enzyme inactivation at infinite inhibitor concentration (kinact) are then obtained by fitting the kobs vs. [I] curves to equation (3).

Experiment [2] deals with T2, rFAAH (Rattus norvegicus, UniProt P97612).
T2 sequence (P97612 1-579): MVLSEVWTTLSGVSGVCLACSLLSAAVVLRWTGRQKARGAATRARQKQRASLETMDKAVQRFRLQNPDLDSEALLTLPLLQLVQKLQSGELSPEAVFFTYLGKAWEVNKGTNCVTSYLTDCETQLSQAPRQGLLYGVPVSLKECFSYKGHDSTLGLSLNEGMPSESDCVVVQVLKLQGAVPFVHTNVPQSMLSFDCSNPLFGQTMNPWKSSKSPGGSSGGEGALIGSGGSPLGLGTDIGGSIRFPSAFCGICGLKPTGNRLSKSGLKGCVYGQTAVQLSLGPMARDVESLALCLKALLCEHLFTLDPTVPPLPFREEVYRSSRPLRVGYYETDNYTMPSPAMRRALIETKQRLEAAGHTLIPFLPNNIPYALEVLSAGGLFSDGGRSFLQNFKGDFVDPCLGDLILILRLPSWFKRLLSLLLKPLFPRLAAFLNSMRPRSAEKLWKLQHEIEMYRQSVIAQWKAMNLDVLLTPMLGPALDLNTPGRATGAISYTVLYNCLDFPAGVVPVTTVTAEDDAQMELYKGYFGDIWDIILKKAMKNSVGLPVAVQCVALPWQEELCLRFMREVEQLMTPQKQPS
The experiment is described as follows: FAAH assay, rFAAH kobs/I. In kind it is biochemical. The note with it: additional data table, unit not given.

[3] abbreviates: additional data table, unit inferred, read-out: hFAAH_Kinact/Ki.

On to `CCCCOc1cccc(C=C2CCN(C(=O)Nc3onc(C)c3C)CC2)c1` [4-(3-butoxybenzylidene)-N-(3,4-dimethylisoxazol-5-yl)piperidine-1-carboxamide], for which, in experiment [1] (setting [3]), the kinact/KI is 14800 M⁻¹ s⁻¹. Further, in experiment [2], the “FAAH_KINACTR:rFAAH:kobs/I” value is 2820. In the case of `CCCCOc1cccc(C=C2CCN(C(=O)Nc3cnoc3C)CC2)c1` [4-(3-butoxybenzylidene)-N-(5-methylisoxazol-4-yl)piperidine-1-carboxamide], the kinact/KI in experiment [1] (setting [3]) turned out to be 2120 M⁻¹ s⁻¹. Also, the “FAAH_KINACTR:rFAAH:kobs/I” value in experiment [2] is 12.9. For `Cc1noc(NC(=O)N2CCC(=Cc3cccc(OCCC4CC4)c3)CC2)c1C` [4-[3-(2-cyclopropylethoxy)benzylidene]-N-(3,4-dimethylisoxazol-5-yl)piperidine-1-carboxamide] the same measures were 12900 M⁻¹ s⁻¹ and 2660.

Consider `Cc1oncc1NC(=O)N1CCC(=Cc2cccc(OCCOC(C)C)c2)CC1` [4-[3-(2-isopropoxyethoxy)benzylidene]-N-(5-methylisoxazol-4-yl)piperidine-1-carboxamide], for which, in experiment [1] (setting [3]), the kinact/KI was determined as 2670 M⁻¹ s⁻¹. In addition, in experiment [2], the “FAAH_KINACTR:rFAAH:kobs/I” value is recorded as less than 12.6. For `Cc1oncc1NC(=O)N1CCC(=Cc2cccc(OCCCc3cnoc3)c2)CC1` [4-[3-(3-isoxazol-4-ylpropoxy)benzylidene]-N-(5-methylisoxazol-4-yl)piperidine-1-carboxamide] the same measures were 3990 M⁻¹ s⁻¹ and less than 13.2. As to `Cc1noc(NC(=O)N2CCC(=Cc3cccc(OCC4CCCC4)c3)CC2)c1C` [4-[3-(cyclopentylmethoxy)benzylidene]-N-(3,4-dimethylisoxazol-5-yl)piperidine-1-carboxamide], the kinact/KI in experiment [1] (setting [3]) worked out at 5110 M⁻¹ s⁻¹. Further, the “FAAH_KINACTR:rFAAH:kobs/I” value in experiment [2] came out at 2360.

`Cc1oncc1NC(=O)N1CCC(=Cc2cccc(OCC3CCCC3)c2)CC1` [4-[3-(cyclopentylmethoxy)benzylidene]-N-(5-methylisoxazol-4-yl)piperidine-1-carboxamide]: in experiment [1] (setting [3]), the kinact/KI turned out to be 838 M⁻¹ s⁻¹. In experiment [2], the “FAAH_KINACTR:rFAAH:kobs/I” value is on record as less than 10.0. For `Cc1oncc1NC(=O)N1CCC(=Cc2cccc(OCCc3cccc(F)c3)c2)CC1` [4-{3-[2-(3-fluorophenyl)ethoxy]benzylidene}-N-(5-methylisoxazol-4-yl)piperidine-1-carboxamide] the same measures were 11000 M⁻¹ s⁻¹ and 59.9. Take `Cc1oncc1NC(=O)N1CCC(=Cc2cccc(OCCc3ccc(F)cc3)c2)CC1` [4-{3-[2-(4-fluorophenyl)ethoxy]benzylidene}-N-(5-methylisoxazol-4-yl)piperidine-1-carboxamide]: in experiment [1] (setting [3]), the kinact/KI was found to be 1480 M⁻¹ s⁻¹. The “FAAH_KINACTR:rFAAH:kobs/I” value in experiment [2] is 52.7. The matching figures for `Cc1noc(NC(=O)N2CCC(=Cc3cccc(OCC4CCC(F)(F)CC4)c3)CC2)c1C` [4-{3-[(4,4-difluorocyclohexyl)methoxy]benzylidene}-N-(3,4-dimethylisoxazol-5-yl)piperidine-1-carboxamide]: 3970 M⁻¹ s⁻¹ and 5360. The matching figures for `Cc1oncc1NC(=O)N1CCC(=Cc2cccc(OCC3CCC(F)(F)CC3)c2)CC1` [4-{3-[(4,4-difluorocyclohexyl)methoxy]benzylidene}-N-(5-methylisoxazol-4-yl)piperidine-1-carboxamide]: 1730 M⁻¹ s⁻¹ and 16.2. For `Cc1noc(NC(=O)N2CCC(=Cc3cccc(OC4CCC(F)(F)CC4)c3)CC2)c1C` [4-{3-[(4,4-difluorocyclohexyl)oxy]benzylidene}-N-(3,4-dimethylisoxazol-5-yl)piperidine-1-carboxamide] the same measures were 2540 M⁻¹ s⁻¹ and 1750. With `Cc1oncc1NC(=O)N1CCC(=Cc2cccc(OC3CCC(F)(F)CC3)c2)CC1` [4-{3-[(4,4-difluorocyclohexyl)oxy]benzylidene}-N-(5-methylisoxazol-4-yl)piperidine-1-carboxamide], in experiment [1] (setting [3]), the kinact/KI turned out to be 2900 M⁻¹ s⁻¹. Further, in experiment [2], the “FAAH_KINACTR:rFAAH:kobs/I” value is 19.8.

Consider `O=C(Nc1cnoc1)N1CCC(=Cc2cccc(OC3CCC(F)(F)CC3)c2)CC1` [4-{3-[(4,4-difluorocyclohexyl)oxy]benzylidene}-N-isoxazol-4-ylpiperidine-1-carboxamide], for which the kinact/KI in experiment [1] (setting [3]) stood at 1530 M⁻¹ s⁻¹. Also, in experiment [2], the “FAAH_KINACTR:rFAAH:kobs/I” value is given as less than 10.0. The matching figures for `Cc1noc(NC(=O)N2CCC(=Cc3cccc(OC4CCC(C)(C)CC4)c3)CC2)c1C` [4-{3-[(4,4-dimethylcyclohexyl)oxy]benzylidene}-N-(3,4-dimethylisoxazol-5-yl)piperidine-1-carboxamide]: 959 M⁻¹ s⁻¹ and 4910. With `Cc1oncc1NC(=O)N1CCC(=Cc2cccc(OC3CCC(C)(C)CC3)c2)CC1` [4-{3-[(4,4-dimethylcyclohexyl)oxy]benzylidene}-N-(5-methylisoxazol-4-yl)piperidine-1-carboxamide], the kinact/KI in experiment [1] (setting [3]) is 2860 M⁻¹ s⁻¹. In experiment [2], the “FAAH_KINACTR:rFAAH:kobs/I” value turned out to be 160. `Cc1noc(NC(=O)N2CCC(=Cc3cccc(OCC4CCCCO4)c3)CC2)c1C` (stereo not shown) [Example 1, N-(3,4-dimethylisoxazol-5-yl)-4-[3-(tetrahydro-2H-pyran-2-ylmethoxy)benzylidene]piperidine-1-carboxamide]: in experiment [1] (oleamide substrate, 30° C., pH 7.4, read-out: hFAAH KInact/KI), the kinact/KI amounted to 5450 M⁻¹ s⁻¹.

Turning to `Cn1nnnc1NC(=O)N1CCC(=Cc2cccc(OCC3CCCCO3)c2)CC1` (stereo not shown) [N-(1-methyl-1H-tetrazol-5-yl)-4-[3-(tetrahydro-2H-pyran-2-ylmethoxy)benzylidene]piperidine-1-carboxamide], the kinact/KI in experiment [1] (setting [3]) was 7490 M⁻¹ s⁻¹. Also, the “FAAH_KINACTR:rFAAH:kobs/I” value in experiment [2] was 1610. For `Cc1noc(NC(=O)N2CCC(=Cc3cccc(OC(C)Cc4ccccc4)c3)CC2)c1C` (stereo not shown) [N-(3,4-dimethylisoxazol-5-yl)-4-[3-(1-methyl-2-phenylethoxy)benzylidene]piperidine-1-carboxamide] the same measures were 3410 M⁻¹ s⁻¹ and 10600. The matching figures for `CCCC(C)Oc1cccc(C=C2CCN(C(=O)Nc3onc(C)c3C)CC2)c1` (stereo not shown) [N-(3,4-dimethylisoxazol-5-yl)-4-[3-(1-methylbutoxy)benzylidene]piperidine-1-carboxamide]: 4600 M⁻¹ s⁻¹ and 4610. With `Cc1noc(NC(=O)N2CCC(=Cc3cccc(OCCOC(C)C)c3)CC2)c1C` [N-(3,4-dimethylisoxazol-5-yl)-4-[3-(2-isopropoxyethoxy)benzylidene]piperidine-1-carboxamide], the kinact/KI in experiment [1] (setting [3]) was 12700 M⁻¹ s⁻¹. Further, the “FAAH_KINACTR:rFAAH:kobs/I” value in experiment [2] came out at 4760. The matching figures for `Cc1noc(NC(=O)N2CCC(=Cc3cccc(OCCCc4cnoc4)c3)CC2)c1C` [N-(3,4-dimethylisoxazol-5-yl)-4-[3-(3-isoxazol-4-ylpropoxy)benzylidene]piperidine-1-carboxamide]: 7170 M⁻¹ s⁻¹ and 2580.

The values are drawn from patent US20110053982A1, “ETHER BENZYLIDENE PIPERIDINE 5-MEMBERED ARYL CARBOXAMIDE COMPOUNDS USEFUL AS FAAH INHIBITORS” (PFIZER INC., priority 2008, published 2011).
